Measured values: PubChem BioAssay AID1963845 (Molecular Pharmacology Branch, DTP, NCI, 2024)

Tested on: 429239-143-T-J1-PDC complex spheroid viability
Experiment: Anticancer human tumor 429239-143-T-J1-PDC patient-derived small cell lung carcinoma cell line growth inhibition [POLQ]
Conditions: for IC50: curve of first compound; for viability, T/C: stronger effect = lower value; active means viability on the fitted dose curve at most 10% of control; inactive means the rest
Method in brief: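 Three-cell-type spheroids modelling solid tumor plus stroma served as the readout system; POL inhibitors were tested individually and in combination, concentration ranges set by clinical Cmax where known.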

[1] = second compound 0.0316 µM, first compound 0.0316 µM
[2] = second compound 0.0316 µM, first compound 0.1 µM
[3] = second compound 0.0316 µM, first compound 0.316 µM
[4] = second compound 0.0316 µM, first compound 1 µM
[5] = second compound 0.0316 µM, first compound 3.16 µM
[6] = second compound 0.0316 µM, first compound 10 µM
[7] = second compound 0.1 µM, first compound 0.0316 µM
[8] = second compound 0.1 µM, first compound 0.1 µM
[9] = second compound 0.1 µM, first compound 0.316 µM
[10] = second compound 0.1 µM, first compound 1 µM
[11] = second compound 0.1 µM, first compound 3.16 µM
[12] = second compound 0.1 µM, first compound 10 µM
[13] = second compound 0.316 µM, first compound 0.0316 µM
[14] = second compound 0.316 µM, first compound 0.1 µM
[15] = second compound 0.316 µM, first compound 0.316 µM
[16] = second compound 0.316 µM, first compound 1 µM
[17] = second compound 0.316 µM, first compound 3.16 µM
[18] = second compound 0.316 µM, first compound 10 µM
[19] = second compound 1 µM, first compound 0.0316 µM
[20] = second compound 1 µM, first compound 0.1 µM
[21] = second compound 1 µM, first compound 0.316 µM
[22] = second compound 1 µM, first compound 1 µM
[23] = second compound 1 µM, first compound 3.16 µM
[24] = second compound 1 µM, first compound 10 µM
[25] = second compound 3.16 µM, first compound 0.0316 µM
[26] = second compound 3.16 µM, first compound 0.1 µM
[27] = second compound 3.16 µM, first compound 0.316 µM
[28] = second compound 3.16 µM, first compound 1 µM
[29] = second compound 3.16 µM, first compound 3.16 µM
[30] = second compound 3.16 µM, first compound 10 µM
[31] = second compound 10 µM, first compound 0.0316 µM
[32] = second compound 10 µM, first compound 0.1 µM
[33] = second compound 10 µM, first compound 0.316 µM
[34] = second compound 10 µM, first compound 1 µM
[35] = second compound 10 µM, first compound 3.16 µM
[36] = second compound 10 µM, first compound 10 µM
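Further: luminescence signal used as surrogate measure of viable cells; spheroids exposed to compounds for seven days before readout.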
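Wherever viability, T/C is given: 100% = DMSO vehicle control viability as luminescence relative to vehicle.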

CC1COCCN1c1cc(-c2ccnn2C)c2ccnc(-c3ccn[nH]3)c2n1 (centres undefined) + COC1C(OC(N)=O)C(O)C(Oc2ccc3c(O)c(NC(=O)c4ccc(O)c(CC=C(C)C)c4)c(=O)oc3c2C)OC1(C)C
70.9 nM: IC50 (second compound 0.316 µM)
inactive: viability, T/C [1] 85.1% | viability, T/C [2] 40.2% | viability, T/C [3] 27.5% | viability, T/C [4] 12.9% | viability, T/C [5] 10.1% | viability, T/C [7] 71.9% | viability, T/C [8] 42% | viability, T/C [9] 28.8% | viability, T/C [10] 13.6% | viability, T/C [11] 8.87% | viability, T/C [13] 75.5% | viability, T/C [14] 35.2% | viability, T/C [15] 28.5% | viability, T/C [16] 13.1% | viability, T/C [17] 10.9% | viability, T/C [19] 79.2% | viability, T/C [20] 53.4% | viability, T/C [21] 27.6% | viability, T/C [22] 15.6% | viability, T/C [23] 10.5% | viability, T/C [24] 10.6% | viability, T/C [25] 83.8% | viability, T/C [26] 50.1% | viability, T/C [27] 29.3% | viability, T/C [28] 14.2% | viability, T/C [29] 10.6% | viability, T/C [31] 72.7% | viability, T/C [32] 46.7% | viability, T/C [33] 28% | viability, T/C [34] 13.1%
82.2 nM: IC50 (second compound 0.0316 µM)
89.1 nM: IC50 (second compound 10 µM)
104 nM: IC50 (second compound 3.16 µM)
active: viability, T/C [6] 8.09% | viability, T/C [12] 10.7% | viability, T/C [18] 9.18% | viability, T/C [30] 9.32% | viability, T/C [35] 9.4% | viability, T/C [36] 9.29%
76.7 nM: IC50 (second compound 0.1 µM)
116 nM: IC50 (second compound 1 µM)

CC1COCCN1c1cc(C2(S(C)(=N)=O)CC2)nc(-c2ccnc3[nH]ccc23)n1 (centres undefined) + COC1C(OC(N)=O)C(O)C(Oc2ccc3c(O)c(NC(=O)c4ccc(O)c(CC=C(C)C)c4)c(=O)oc3c2C)OC1(C)C
2580 nM: IC50 (second compound 10 µM)
inactive: viability, T/C [1] 116% | viability, T/C [2] 100% | viability, T/C [3] 89.4% | viability, T/C [4] 79.4% | viability, T/C [5] 35.6% | viability, T/C [6] 15.6% | viability, T/C [7] 107% | viability, T/C [8] 105% | viability, T/C [9] 96.2% | viability, T/C [10] 73.5% | viability, T/C [11] 37.6% | viability, T/C [12] 15.1% | viability, T/C [13] 103% | viability, T/C [14] 94.3% | viability, T/C [15] 100% | viability, T/C [16] 61.1% | viability, T/C [17] 42.4% | viability, T/C [18] 17.3% | viability, T/C [19] 120% | viability, T/C [20] 94.1% | viability, T/C [21] 95.3% | viability, T/C [22] 88.1% | viability, T/C [23] 38.1% | viability, T/C [24] 21.4% | viability, T/C [25] 90.6% | viability, T/C [26] 109% | viability, T/C [27] 100% | viability, T/C [28] 72.6% | viability, T/C [29] 31.7% | viability, T/C [30] 18.8% | viability, T/C [31] 89.8% | viability, T/C [32] 103% | viability, T/C [33] 106% | viability, T/C [34] 72.1% | viability, T/C [35] 47% | viability, T/C [36] 16.6%
1990 nM: IC50 (second compound 0.316 µM)
1880 nM: IC50 (second compound 3.16 µM)
2430 nM: IC50 (second compound 1 µM)
2270 nM: IC50 (second compound 0.0316 µM)
2120 nM: IC50 (second compound 0.1 µM)
